The values below come from paper PMC10317887, “Hypoglycaemia frequency and physiological response after double or triple doses of once-weekly insulin icodec vs once-daily insulin glargine U100 in type 2 diabetes: a randomised crossover trial” (Diabetologia, 2023).

This assay relates to adrenaline (epinephrine). The assay is described as follows: Counterregulatory hormone response: plasma adrenaline (LC-MS). The assay is classed as in vivo, human. The settings on record: for Adrenaline at PG3.0 mmol/l, estimated geometric mean / Adrenaline at PGnadir, estimated geometric mean: plasma, subgroup. The protocol:
Plasma concentrations of glucagon were measured by an enzyme-linked immunosorbent assay (Mercodia AB, Uppsala, Sweden). Plasma concentrations of adrenaline (epinephrine) and noradrenaline (norepinephrine) were measured by liquid chromatography-mass spectrometry (Thermo Fisher Scientific, Dreieich, Germany). Serum concentrations of cortisol and growth hormone were measured by electrochemiluminescent immunoassays (Roche Diagnostics, Mannheim, Germany).

Turning to insulin icodec, the “Adrenaline at PG3.0 mmol/l, treatment ratio (95% CI) icodec vs glargine U100” value reads like this: (double dose) 0.90 (0.54, 1.52); (triple dose) 2.54. The “Adrenaline at PGnadir, treatment ratio (95% CI) icodec vs glargine U100” value is listed as 0.90 (0.62, 1.30) (double dose) and 1.29 (0.88, 1.89) (triple dose). For the same substance, the “Adrenaline at PG3.0 mmol/l, estimated geometric mean” value runs as follows: (double dose, n=17 icodec, 15 glargine U100) 476.7 pmol/L; (triple dose, n=20 icodec, 28 glargine U100) 793.8 pmol/L. Further, the “Adrenaline at PGnadir, estimated geometric mean” value is, setting by setting: (double dose, n=20 icodec, 19 glargine U100) 530.4 pmol/L; (triple dose, n=20 icodec, 29 glargine U100) 735.8 pmol/L.
